# Reference: paper PMC3742671, “Structure, Antimicrobial Activities and Mode of Interaction with Membranes of Bovel Phylloseptins from the Painted-Belly Leaf Frog, Phyllomedusa sauvagii” (PLoS ONE, 2013)
# Ends that are not written are not given here.
# What was measured:
# [1] = tested on: Leishmania infantum (strain MHOM/MA/67/ITMAP-263) promastigotes; format: cell-based
# Method: (§1) The effect of phylloseptins-S was evaluated against several bacterial strains and yeasts (Table 2). Bacteria were cultured in Luria-Bertani broth (LB), whereas yeasts were cultured in Yeast Peptone Dextrose medium (YPD), and minimal inhibitory concentrations (MICs) were determined by measuring the absorbance at 630 nm in 96-well microtitration plates, as described previously. Leishmanicidal activity of phylloseptins-S was also examined against promastigotes of different Leishmania species: Leishmania infantum (strain MHOM/MA/67/ITMAP-263), L. major (MHOM/SU/73/5-ASKH) and L. braziliensis (MHOM/BR/75/M2904). Culture of promastigotes and determination of the growth inhibition were performed as previously described, [22], [23].
# Figure 3 Activity of phylloseptins-S against Leishmania infantum promastigotes. IC50 values were determined from a dose-response inhibition fit using GraphPad Prism 5.0 (Table 2). Results represent the mean ± S.E.M. and are representative of three experiments carried out in triplicates.
# E. coli ML-35p [2] = assay: Permeabilization of the cytoplasmic membrane (ONPG hydrolysis); format: cell-based; details: ONP production at 405 nm from ONPG; compared with 10 µM dermaseptin B2 as positive control
# Method: PLS-induced permeabilization of the cytoplasmic plasma membranes of E. coli ML-35p and S. aureus ST1065 was measured by the rate of production of o-nitrophenol (ONP) at 405 nm, following hydrolysis of o-nitrophenyl β-D-galactopyranoside (ONPG) by β-galactosidase. Dermaseptin B2 (10 µM) and PBS were used as positive and negative controls, respectively.
# PLS-induced permeabilization of the cytoplasmic membranes of S. aureus ST1065 and E. coli ML-35p was analyzed by incubating the bacteria, which express β-galactosidase constitutively, with different concentrations of the peptides (S. aureus ST1065: PLS-S1, -S2, and -S4; E. coli ML-35p: PLS-S2 and -S4) and measuring the time-dependent hydrolysis of the small chromogenic substrate o-nitrophenyl-β-D-galactopyranoside (ONPG) into o-nitrophenol (ONP) by cytoplasmic β-galactosidase (Fig. 5). The three peptides permeabilized the bacterial cytoplasmic membrane with increasing severity according to the time and the peptide concentration. […] To investigate the mechanism of permeabilization, E. coli ML-35p were incubated with PLS-S2 (30 and 100 µM) and PLS-S4 (25 and 100 µM) for 60 min and β-galactosidase activity was measured after removing bacteria by centrifugation and adding ONPG to the supernatant.
# Figure 5 Kinetics of the cytoplasmic membrane leakage of E. coli ML-35p and S. aureus ST1065 after incubation with different concentrations of active phylloseptins-S. The membrane leakage was determined by measuring the production of o-nitrophenol at 405 nm following hydrolysis of ONPG by the cytoplasmic bacterial β-galactosidase. Data are expressed as the mean ± S.E.M of two experiments carried out in triplicates after subtraction of the negative control values (w/o peptide) from the test values. Control panels display the kinetics obtained without peptide (negative control) and with 10 µM dermaseptin B2 (Drs B2, positive control). For E. coli ML-35p, the extracellular release of β-galactosidase was also measured as the production of o-nitrophenol at 405 nm after incubation (60 min) of E. coli cells with PLS-S2 (30 and 100 µM) and PLS-S4 (25 and 100 µM), removing of bacteria by centrifugation and adding ONPG to the supernatant. The negative (w/o peptide) and positive (10 µM Drs B2) controls are indicated for comparison. Results are expressed as the mean ± S.E.M of one representative experiment performed in triplicates.
# S. aureus ST1065 = details: LB medium (pH 7), absorbance at 630 nm; average of three independent experiments in triplicates
# Method: as §1
# (§2) The antimicrobial activity of synthetic PLS-S1 to -S5 was assayed in LB medium (pH 7) against several Gram-negative and Gram-positive bacteria, and multi-drug resistant S. aureus strains. […] The antiparasitic activity of PLSs was also determined against three Leishmania species (L. infantum, L. major, and L. braziliensis). […] Because PLS-S3 contains histidines as basic residues and that approximately only 11% of these residues are positively charged at pH 7, we have evaluated the antibacterial activity at pH 5 at which His residues are predominantly positively charged (∼91%).
# K. pneumoniae ATCC 13883 = details: LB medium (pH 7), absorbance at 630 nm; average of three independent experiments in triplicates
# Method: as §1, §2
# S. pyogenes ATCC 19615 = details: LB medium (pH 7), absorbance at 630 nm; average of three independent experiments in triplicates
# Method: as §1, §2
# S. aureus ATCC 43300 = details: strain resistant to methicillin and oxacillin; LB medium (pH 7), absorbance at 630 nm; average of three independent experiments in triplicates
# Method: as §1, §2
# E. faecalis ATCC 29212 = details: LB medium (pH 7), absorbance at 630 nm; average of three independent experiments in triplicates
# Method: as §1, §2
# S. aureus ATCC BAA-44 = details: multidrug resistant strain; LB medium (pH 7), absorbance at 630 nm; average of three independent experiments in triplicates
# Method: as §1, §2
# A. baumannii ATCC 19606 = details: LB medium (pH 7), absorbance at 630 nm; average of three independent experiments in triplicates
# Method: as §1, §2
# E. coli ATCC 25922 = details: for MIC: ATCC 25922, pH 7
# Method: as §1, §2
# E. coli ML-35p [3] = details: LB medium (pH 7), absorbance at 630 nm; average of three independent experiments in triplicates
# Method: as §1, §2
# S. aureus ATCC 25923 = details: LB medium (pH 7), absorbance at 630 nm, 96-well plates; average of three independent experiments in triplicates
# Method: as §1, §2
# P. aeruginosa ATCC 27853 = details: LB medium (pH 7), absorbance at 630 nm; average of three independent experiments in triplicates
# Method: as §1, §2
# human erythrocytes = format: cell-based
# Method: Hemolytic assays were performed using fresh human erythrocytes from a healthy donor according to a previously described protocol. Cytotoxic activity of PLS-S was also determined on the human leukemia monocyte cell line THP-1. 80 µL of 6.25×10^5 cells/mL were incubated for 72 h with 20 µL of peptide (3 to 50 µM, final concentrations) at 37°C and 5% CO2 in RPMI medium supplemented with 10% FCS. The cell viability was determined by adding 10 µL of methylthiazolyldiphenyl-tetrazolium bromide (MTT, 10 mg/mL) to the plate. After 4h incubation at 37°C, formazan was solubilized with 100 µL of a solution containing 50% isopropanol and 10% SDS, and the absorbance was measured at 570 nm. The lytic concentration 50 (LC50), which correspond to the peptide concentration producing 50% lysis, was determined with the GraphPad Prism® 5.0 software. Results were expressed as the mean of three independent experiments performed in triplicates.
Substance,IC50 [1],permeabilization of the cytoplasmic membrane (in words) (E. coli ML-35p [2]),MIC (S. aureus ST1065),MIC (K. pneumoniae ATCC 13883),MIC (S. pyogenes ATCC 19615),MIC (S. aureus ATCC 43300),MIC (E. faecalis ATCC 29212),MIC (S. aureus ATCC BAA-44),MIC (A. baumannii ATCC 19606),MIC (E. coli ATCC 25922),MIC (E. coli ML-35p [3]),MIC (S. aureus ATCC 25923),MIC (P. aeruginosa ATCC 27853),LC50 (peptide concentration producing 50% lysis) (human erythrocytes),"MIC at pH 5 (E. coli ATCC 25922; ATCC 25922, pH 5)"
FLSMIPHIVSGVAALAKHL-NH2 [PLS-S4],22 µM,as efficient as with dermaseptin-B2,6.25 µM,25 µM,3.12 µM,6.25 µM,50 µM,6.25 µM,6.25 µM,25 µM,25 µM,6.25 µM,100 µM,33 µM,
FLSLIPHIVSGVASIAKHF-NH2 [PLS-S1],16.5 µM,,6.25 µM,>100 µM,3.12 µM,6.25 µM,25 µM,6.25 µM,6.25 µM,70 µM,>100 µM,6.25 µM,>100 µM,39 µM,12.5 µM
FLSLIPHIVSGVASLAKHF-NH2 [PLS-S2],18.5 µM,lower efficiency,6.25 µM,25 µM,1.56 µM,6.25 µM,25 µM,6.25 µM,6.25 µM,25 µM,30 µM,6.25 µM,200 µM,25 µM,
